The values that follow come from patent US20240033246A1, “COMPOUNDS FOR TREATING EYE DISEASES AND DISORDERS” (The State of Israel, Ministry of Agriculture & Rural …, priority 2020, published 2024).

The nature of data set [1]: Side effects after daily TTF eye drops (general health, retinal and corneal structure). To be noted: 12 weeks of daily treatment with TTF eye drops. It counts as in vivo. On the procedure: (§1) 3 weeks old RPE65/rd12 mice were treated twice daily (6 days/week) for 12 weeks with eye drops (10p1/eye drop) containing 12.5 mg/ml (34.7 mM) TTF (n=6) or vehicle alone (DMSO, n=6).

The next data set deals with retinal function. The data set can be described thus: Dark-adapted electroretinogram (ERG), retinal function. It is filed as in vivo, RPE65/rd12 mice. The note with it: eye drops 12.5 mg/ml TTF twice daily, 6 days/week, 12 weeks; n=6; vs placebo eye drops. On the procedure: as §1
For dark adapted ERG, the mice were placed in total darkness for at least 12 h prior to examination. Animals were anesthetized with intraperitoneal injection containing 75 mg/kg ketamine and 10 mg/kg xylazine. Pupils were dilated with topical 1% tropicamide and 10% phenylephrine HCl. ERGs were recorded from both eyes simultaneously, using golden wire loop electrodes positioned on each cornea. Chloride silver electrodes were inserted subcutaneously near the temporal canthi as reference. An additional ground electrode was placed on the tail. Tests were performed under dark adapted (scotopic), and light adapted (photopic) conditions. Five light stimuli at increasing intensities were used (0.0023, 0.25, 2.4, 4.4, 23.5 cd-s/m2). For dark adapted ERG, responses were averaged with stimulus intervals of 1 to 30 s depending on the stimulus light intensity.

The test system of another data set is IL-1β. The data set can be described thus: IL-1β concentration in retinal lysates (ELISA). It is filed as in vivo, RPE65/rd12 mice. To be noted: eye drops 12.5 mg/ml TTF in DMSO twice daily, 6 days/week, 3 weeks; vs vehicle. As to the method: 3 weeks old RPE65/rd12 mice were treated twice daily (6 days/week) for 3 weeks with eye drops containing 12.5 mg/ml (34.7 mM) TTF in DMSO (10p1/eye drop) or vehicle alone (DMSO).
Each pair of retinas from the same mouse was homogenized in the same tube in 120 μl lysis buffer containing 10 mM TRIS pH 7.5, 100 mM NaCl, 1 mM EDTA, and 0.01% TRITON X-100. Protein concentration in each sample was determined in duplicates using a commercial kit: Pierce™ BCA Protein Assay Kit (23227), Thermo Fisher Scientific, IL, USA. IL-1β levels were tested using a commercial sandwich ELISA kit: Mouse IL-1 beta/IL-1F2 DuoSet ELISA (DY401). R&D Systems, Inc., MN, USA.

In another data set the test system is retinal photoreceptors. The data set can be described thus: TUNEL staining of photoreceptor layer (photoreceptor apoptosis). To be noted: eye drops 12.5 mg/ml TTF in DMSO twice daily, 6 days/week, 3 weeks; n=7; p=0.0013 vs placebo. It counts as in vivo, RPE65/rd12 mice. As to the method:
3 weeks old RPE65/rd12 mice were treated twice daily (6 days/week) for 3 weeks with eye drops containing 12.5 mg/ml (34.7 mM) TTF in DMSO (10 μl/eye drop) or vehicle alone (DMSO).
Mice were euthanized using C02, the eyes were obtained and fixed in 10% formalin. Frozen sections were stained with TUNEL-TMR kit following manufacturer's instructions. The number of TUNEL positive nuclei in the outer nuclear layer was counted as well as the length of retinal sections. Results are shown in FIG. 6 as the number of TUNEL positive nuclei/mm retina.

Data set [2] in a line: TTF eye drops crossing the corneal barrier, HPLC of anterior chamber fluids. It counts as in vivo. The note with it: eye drops 12.5 mg/ml in DMSO, rabbit. On the procedure:
TTF eye drops (12.5 mg/ml=34.7 mM in DMSO) or vehicle (DMSO) were dropped every 10 seconds on rabbit eyes (10 eye drops of 50 μL per eye−0.5 mL total volume). The eye fluids were collected 45 minutes or 3 hours later. About 100 microliters of anterior chamber fluids were collected from each eye. The eye fluids from both eyes of the same rabbit were pooled and the amount of TTF that penetrated the cornea was determined by IPLC analysis. Twenty microliters of pooled eye fluids were filtered and injected into an Agilent UIHPLC Infinity II 1290 device equipped with a Kinetex 5 μm EVO C18 column (250*4.6 mm). Running conditions were as follows: a 10-minute gradient was delivered at a flow rate of 1 mL/min: 5 minutes in a binary mobile phase which consisted of 0.5% acetic acid (in distilled water), and 5 minutes in acetonitrile in DDW. The detection was performed at a wavelength of 350 nm since, in eye fluids taken from naive rabbits or rabbits given eye drops containing DMSO only, there was no background at 350 nm interfering with the measurement. Under these conditions, the retention time of TTF is 5.086 minutes.

The subject of data set [3] is retinal cone photoreceptors. The data set can be described thus: Eye cup cultures stained for M-cone opsin (cone photoreceptor cell death in vitro). The note with it: 8 nM TTF in growth media, 18 hours, eye cups of 21-day old RPE65/rd12 mice, vs vehicle (0.0115% DMSO). It is filed as cell-based. As to the method: Eyes were obtained from 21-day old RPE65/rd12 mice, and the posterior segment was separated from the cornea, the lens, the iris, and the ciliary body under a surgical microscope. The eye cups were placed onto a microporous membrane (30 mm in diameter; Millicell-CM; Millipore, Bedford, MA) with the ganglion cell layer (GCL) facing up and the sclera facing the filter in a six-well culture plate. Each well contained 1 ml of culture medium consisting of 50% minimum essential medium/HEPES (Sigma, St. Louis, MO), 25% HBSS (Invitrogen, USA), and 25% heat inactivated fetal bovine serum (Invitrogen, USA) supplemented with 200 μM L-glutamine and 5.75 mg/ml glucose and 8 nM natural TTF (nTTF) or synthetic TTF (sTTF) or same volume of vehicle solution (0.0115% DMSO, control). The eye cups were maintained in culture at 37° C., 5% C02 incubator for 18 hours.
The eye cups were fixed with 4% paraformaldehyde (PFA) and embedded in sucrose for cryopreservation. […]
Sections from these eye cups were stained with antibodies directed against M-cone opsin (Milipore, USA) by incubating the sections with antibodies diluted 1:100 in 1% BSA (Sigma) for 16 hrs at 4° C. followed by extensive washing in PBS and 1 hour incubation with 488-AffiniPure Donkey Anti-Mouse IgG antibody (Jackson Immuno Research) at room temperature. […] The number of positively stained cells/mm retina was recorded. […]

A further data set relates to microglial cells. The data set can be described thus: Microglial activation and migration into the sub retina, Iba-1 staining of retina flat mounts. It counts as in vivo, RPE65/rd12 mice. The note with it: eye drops 12.5 mg/ml TTF in DMSO twice daily, 6 days/week, 3 weeks; n=10; p=0.0063 vs placebo. As to the method:
Eyes were lightly fixed in 4% PFA. The cornea, iris and lens were removed, the neuro-retina was peeled off and the RPE flat mount was incubated with Iba-1 antibodies (Wako chemicals, USA, 1:200 in PBS and 0.1% triton-X) for 16 hours at 4° C., followed by incubation with secondary Alexa Fluor® 488-AffiniPure Donkey Anti-Mouse IgG antibody (Jackson Immuno Research; USA, 1:400 in PBS with 0.2% DAPI) for 2 hours at room temperature. Samples were visualized using a fluorescent microscope (Olympus BX51) and recorded using the Olympus DP71 camera.
3 weeks old RPE65/rd12 mice were treated twice daily (6 days/week) for 3 weeks with eye drops containing 12.5 mg/ml (34.7 mM) TTF in DMSO (10pl/eye drop) or vehicle alone (DMSO). Each treatment consisted of one eye drop. Retina flat mounts of the treated and the control RPE65/rd12 mice were prepared as described above and stained for the microglial specific marker Iba-1.

As to `COc1cc(-c2oc3cc(OC)c(OC)c(O)c3c(=O)c2O)ccc1O` [TTF, 3,5,4′-trihydroxy-6,7,3′-trimethoxyflavone], in data set [1], the “side effects (general health, retinal and corneal structure)” value is listed as “no side effects were observed”. Moreover, in the data set on retinal function, the “maximal dark-adapted ERG a-wave amplitude” value is on record as “significantly higher” and the “maximal dark-adapted ERG b-wave amplitude” value is on record as “significantly higher”. For the same compound, the “IL-1β concentration in the retina” value with IL-1β is listed as “reduced”. The “TUNEL positive cells in the photoreceptor layer (mean±SE)” value with retinal photoreceptors is on record as 2±0.4 apoptotic cells/mm retina. Also, in data set [2] (10 drops of 50 μL per eye, anterior chamber fluids), the “crossing of the corneal barrier / penetration into the eye” value is “can cross the corneal barrier and penetrate the eye”. The “time of maximal concentration of TTF in eye fluids after eye drops instillation” value in data set [2] (fluids collected at 45 minutes or 3 hours) was found to be 45 min. In addition, the “cone photoreceptor cell death in cultures of retinas” value in data set [3] is “attenuates cone photoreceptor cell death”. The “infiltrating subretinal microglia (mean±SD)” value with microglial cells came out at 42±14 microglia cells/retina.
